Structures are written as SMILES. “Also recorded” adds a separate entry of the source. Like-named read-outs stand apart in the source and are kept apart here.

We go through 4 molecules from patent US20110160462A1, “CRYSTALLINE FORMS OF THIAZOLIDINEDIONE COMPOUND AND ITS MANUFACTURING METHOD” (DAIICHI SANKYO COMPANY, LIMITED, priority 2008, published 2011).

Data set [1] in a line: Solubility in dilute hydrochloric acid (Test Example 3). To be noted: for The concentration of 5-(4-{[6-(4-amino-3,5-dimethylphenoxy)-1-methyl-1-H-benzimidazol-2-yl]methoxy}benzyl)-1,3-thiazolidine-2,4-dione in dilute hydrochloric acid: dilute hydrochloric acid 9.6 mg/g (pH about 0.7), 25° C., 500 mg in 5 mL, sampled after 6 minutes.
Experimental: Concentrated hydrochloric acid was diluted with water to prepare dilute hydrochloric acid (with a pH of about 0.7 at 25° C.) with a hydrochloric acid concentration of 9.6 mg/g, which was used as a test liquid. 500 mg of the crystalline form was weighed and added to 5 mL of the test liquid at 25° C. and stirred at the same temperature. After 6 minutes, the resulting test liquid was sampled and filtered. The concentration of 5-(4-{[6-(4-amino-3,5-dimethylphenoxy)-1-methyl-1-H-benzimi dazol-2-yl]methoxy}benzyl) 3-thiazolidine-2,4-dione in the filtrate was determined.
The concentration of 5-(4-{[6-(4-amino-3,5-dimethylphenoxy)-1-methyl-1-H-benzimi dazol-2-yl]methoxy}benzyl) 3-thiazolidine-2,4-dione was determined by the method described below.
Water, acetonitrile and methanol were mixed in a volume ratio of 55:40:5 to form a sample solvent.
In the sample solvent was dissolved 0.2 g of isoamyl 4-hydroxybenzoate so that 200 mL of an internal standard solution was obtained. About 0.04 g of a standard sample of 5-(4-{[6-(4-amino-3,5-dimethylphenoxy)-1-methyl-1-H-benzimi dazol-2-yl]methoxy}benzyl)-1,3-thiazolidine-2,4-dione dihydrochloride monohydrate was precisely weighed, transferred to a 200 mL measuring flask and dissolved in the sample solvent to form 200 mL of a solution. 5 mL of the solution was precisely measured and transferred to a 50 mL measuring flask. 10 mL of the internal standard solution was precisely added to the measuring flask, and the sample solvent was further added thereto to form 50 mL of a standard solution.
After sampling, the test liquid was filtered, and about 0.04 g of the filtered test liquid was precisely weighed and transferred to a 50 mL measuring flask. About 2.5 mL of dimethyl sulfoxide was added thereto. After 10 mL of the internal standard solution was added thereto, the sample solvent was further added thereto to form 50 mL of a sample solution.
The concentration was measured under the test conditions below.
The concentration is calculated from the following formula.
The concentration (mg/g) of the test liquid=1000×(QT×WS×FP×502.58)/(QS×WT×40×593.52),
wherein WS: the weight (g) of the standard sample when the standard solution is prepared; WT: the weight (g) of the test liquid when the sample solution is prepared; FP: the purity factor of the standard sample; QS: the value obtained by dividing the peak area of the standard sample in the chromatogram of the standard solution by the peak area of the internal standard; and QT: the value obtained by dividing the peak area of the sample in the chromatogram of the sample solution by the peak area of the internal standard.
For data set [2] the following is noted: as disclosed in Japanese Patent No. 3488099; cited from earlier work.
Data set [3] deals with T1, peroxisome proliferator-activated receptor (PPAR) γ (Homo sapiens, UniProt P37231).
T1 sequence (P37231 1-505): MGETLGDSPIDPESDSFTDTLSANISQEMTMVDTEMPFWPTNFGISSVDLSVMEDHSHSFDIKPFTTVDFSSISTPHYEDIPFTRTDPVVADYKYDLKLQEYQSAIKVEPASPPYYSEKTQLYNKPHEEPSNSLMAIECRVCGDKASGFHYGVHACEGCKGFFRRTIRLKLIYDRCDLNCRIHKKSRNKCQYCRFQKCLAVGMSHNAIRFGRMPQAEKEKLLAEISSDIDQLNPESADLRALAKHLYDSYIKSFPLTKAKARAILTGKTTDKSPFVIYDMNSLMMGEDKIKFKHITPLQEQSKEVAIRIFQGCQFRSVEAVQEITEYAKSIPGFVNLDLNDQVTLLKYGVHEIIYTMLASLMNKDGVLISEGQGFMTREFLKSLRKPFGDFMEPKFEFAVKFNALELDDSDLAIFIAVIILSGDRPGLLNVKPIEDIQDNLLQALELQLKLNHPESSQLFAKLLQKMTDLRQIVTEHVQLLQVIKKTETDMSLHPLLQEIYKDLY
To be noted: as disclosed in Patent Documents 1 to 5; cited from earlier work.

Data set [4] relates to cancer cells including human stomach cancer cells, human breast cancer cells, small cell lung cancer, pancreas cancer cells, prostate cancer cells, kidney …. To be noted: Test Example 1 in WO 2007/091622; cited from earlier work.
The subject of data set [5] is cancer cells. The conditions noted are these: in combination with an epidermal growth factor receptor (EGFR) inhibitor; Test Example 4 in WO 2007/091622; cited from earlier work.
The subject of data set [6] is human leukemia cells. The conditions noted are these: Test Example 2 in WO 2007/091622; cited from earlier work.
Data set [7] concerns cancer cells. The conditions noted are these: in combination with a VEGFR inhibitor or a Raf kinase inhibitor; Test Example 6 in WO 2007/091622; cited from earlier work.
Data set [8] relates to human kidney cancer. The conditions noted are these: Test Example 7 in WO 2007/091622, cited from earlier work.
Data set [9] has as its system human non-small-cell lung cancer. To be noted: Test Example 5 in WO 2007/091622, cited from earlier work.
For data set [10], the system named is human colon cancer cell lines. The conditions noted are these: Test Example 3 in WO 2007/091622; cited from earlier work.

Regarding `Cc1cc(Oc2ccc3nc(COc4ccc(CC5SC(=O)NC5=O)cc4)n(C)c3c2)cc(C)c1N.Cl.Cl.O` (centres unmarked) [5-(4-{[6-(4-amino-3,5-dimethylphenoxy)-1-methyl-1-H-benzimidazol-2-yl]methoxy}benzyl)-1,3-thiazolidine-2,4-dione dihydrochloride monohydrate], the “The concentration of 5-(4-{[6-(4-amino-3,5-dimethylphenoxy)-1-methyl-1-H-benzimidazol-2-yl]methoxy}benzyl)-1,3-thiazolidine-2,4-dione in dilute hydrochloric acid” value in data set [1] (dihydrochloride monohydrate) came to 0.276 mg/g.

Take `Cc1cc(Oc2ccc3nc(COc4ccc(CC5SC(=O)NC5=O)cc4)n(C)c3c2)cc(C)c1N` (centres unmarked) [Compound (I), 5-(4-{[6-(4-amino-3,5-dimethylphenoxy)-1-methyl-1-H-benzimidazol-2-yl]methoxy}benzyl)-1,3-thiazolidine-2,4-dione]: the “activity to ameliorate insulin resistance and to reduce blood sugar” value in data set [2] is “significant activity to ameliorate insulin resistance and to reduce blood sugar”. The “ability to activate PPAR γ” value in [3] was “significant ability to activate”.

As to `Cc1cc(Oc2ccc3nc(COc4ccc(CC5SC(=O)NC5=O)cc4)n(C)c3c2)cc(C)c1N.Cl.Cl.O` (centres unmarked) [Crystalline form A, 5-(4-{[6-(4-amino-3,5-dimethylphenoxy)-1-methyl-1-H-benzimidazol-2-yl]methoxy}benzyl)-1,3-thiazolidine-2,4-dione dihydrochloride monohydrate], the “The concentration of 5-(4-{[6-(4-amino-3,5-dimethylphenoxy)-1-methyl-1-H-benzimidazol-2-yl]methoxy}benzyl)-1,3-thiazolidine-2,4-dione in dilute hydrochloric acid” value in [1] (listed as Crystalline form A manufactured according to Example 4, dihydrochloride monohydrate) is reported as 0.325 mg/g. Besides, the “Solubility / concentration in dilute hydrochloric acid, comparison in words” value in data set [1] (dilute hydrochloric acid, dihydrochloride monohydrate) is recorded as “highest concentration among the dihydrochloride monohydrate crystalline forms; also recorded: higher solubility than Crystalline form B”.

Turning to `Cc1cc(Oc2ccc3nc(COc4ccc(CC5SC(=O)NC5=O)cc4)n(C)c3c2)cc(C)c1N.Cl.Cl` (centres unmarked) [dihydrochloride of Compound (I), 5-(4-{[6-(4-amino-3,5-dimethylphenoxy)-1-methyl-1-H-benzimidazol-2-yl]methoxy}benzyl)-1,3-thiazolidine-2,4-dione dihydrochloride], the “activity to inhibit the growth of cancer cells” value in data set [4] is “significant activity to inhibit the growth”. For the same molecule, the “activity to inhibit the growth of cancer cells in combination” value in data set [5] and in data set [7] was “synergistic activity to inhibit the growth” throughout. Besides, in data set [6], the “growth inhibition of human leukemia cells” value is given as “significantly inhibits the growth-inhibiting activity”. Further, in data set [8] (alone), the “antitumor activity against human kidney cancer” value is “has antitumor activity”. Also, the “antitumor activity against human kidney cancer in combination” value in data set [8] (in combination with a VEGFR inhibitor or a Raf kinase inhibitor) is “enhanced antitumor activity”. In [9] (alone), the “antitumor activity against human non-small-cell lung cancer” value was “has antitumor activity”. Besides, in data set [9] (in combination with an EGFR inhibitor), the “antitumor activity against human non-small-cell lung cancer in combination” value was “enhanced antitumor activity”. Also, the “antitumor activity in vivo against human colon cancer cell lines” value in data set [10] is “significant antitumor activity”.
